Reference: patent US20120251442A1, “Methods for Treatment of Tumors by Direct Administration of a Radioisotope” (GABRIEL INSTITUTE, INC., priority 2007, published 2012)

Experiment: Radioisotope delivered into a drilled hole in the femur, tissue counting at two hours
Format: in vivo, Sprague Dawley rat
Method: A miniature drill was used to create a hole in the femur of an anesthetized Sprague Dawley rat. A miniature pump was used to deliver 3 μL of this Ho-166 composition into the hole created by the drill.
Two hours after the injection of the dose the rat was sacrificed and dissected. Tissues/organs excised and counted included bone (opposite femur), liver, kidneys, spleen, muscle, blood, heart, lung, pancreas as well as the injected femur. Counting was done by the use of a NaI gamma detector to determine the presence of radioactivity.
The amount of activity found in the site of injection was 92% of the injected dose. Less than 2% of the dose was found in the liver or in the rest of the bone. Total skeletal dose was determined by multiplying the % dose in the opposite femur by 25.
Ho-166 in 0.1M HCl was obtained from MURR. The pH was measured with pH paper showing a pH of about 1. The miniature drill described above in Example 6 was used to create a hole in the femur of an anesthetized Sprague Dawley rat. The miniature pump described above was used to deliver 3 μL of Ho-166 solution into the hole created by the drill. Two hours after the injection of the dose the rat was sacrificed and dissected. The amount of activity found in the site of injection was 5% of the injected dose. However 52% of the dose was found in the liver and 23% of the dose was found in the rest of the bone. Total skeletal dose was determined by multiplying the % dose in the opposite femur by 25.
The miniature drill described in Example 6 was used to create a hole in the femur of an anesthetized Sprague Dawley rat. The miniature pump described in Example 6 was used to deliver 2 μL of Sm-153-DOTMP solution into the hole created by the drill. Two hours after the injection of the dose the rat was sacrificed and dissected. The amount of activity found in the site of injection was 9% of the injected dose. None of the radioactivity was found in the liver and about 20% was found in the rest of the bone. Total skeletal dose was determined by multiplying the % dose in the opposite femur by 25. An average of 65% of the injected dose was found in the urine.

[1] = two hours after injection into femur hole

With O=P([O-])(O)CN1CCN(CP(=O)([O-])O)CCN(CP(=O)(O)O)CCN(CP(=O)([O-])O)CC1.[153Sm+3] [Sm-153-DOTMP] the “Activity found in the site of injection, % of the injected dose” value [1] was 9%, the “Dose found in the liver” value [1] was “None” and the “Injected dose found in the urine” value [1] was 65%. For the same compound, the “Dose found in the rest of the bone” value (two hours after injection, % dose in opposite femur multiplied by 25) was “about 20%”.
